Results taken from patent US10059713B2 (Takeda Pharmaceutical Company Limited, priority 2014, dated 2018).

target: human GPR43 (Homo sapiens (Human), UniProt O15552); experiment: Ca-Flux functional assay: determination of agonist/positive allosteric modulator (PAM) activity; format: cell-based; conditions: CHO-K1 Gα16 cells stably expressing human GPR43; compound added with EC20 sodium acetate; intracellular Ca2+ by FLIPR; does not distinguish agonist from PAM
In short: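 Agonist or PAM activity read as intracellular Ca2+ rise by FLIPR after adding compound plus EC20 acetate, acetate EC20 set from a prior curve. Cells: CHO-K1 Gα16 with stable human GPR43. EC50 from ten-point half-log curves starting 10 μM.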

Chain of human GPR43 (O15552 whole entry): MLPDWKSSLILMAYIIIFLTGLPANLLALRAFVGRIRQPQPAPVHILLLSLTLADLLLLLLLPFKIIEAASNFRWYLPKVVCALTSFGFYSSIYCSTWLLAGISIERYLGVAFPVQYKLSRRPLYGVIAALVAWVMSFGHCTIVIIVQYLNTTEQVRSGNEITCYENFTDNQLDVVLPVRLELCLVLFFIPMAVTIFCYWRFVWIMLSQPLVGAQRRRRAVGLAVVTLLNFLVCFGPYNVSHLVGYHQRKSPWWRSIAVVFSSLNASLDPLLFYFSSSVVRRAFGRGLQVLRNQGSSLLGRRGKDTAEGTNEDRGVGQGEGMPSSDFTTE

Question: Which EC50 does the source give for CCC(Oc1nc(C)nc2c(S(=O)(=O)c3ccccc3)c(N)[nH]c12)C1CC1 (centres unmarked) [Example 243, 7-(benzenesulfonyl)-4-(1-cyclopropylpropoxy)-2-methyl-5H-pyrrolo[3,2-d]pyrimidin-6-amine] here?
Answer: 11 nM

Question: For Nc1[nH]c2c(-c3cccnc3)ncnc2c1S(=O)(=O)c1ccccc1 [Example 67, 7-(benzenesulfonyl)-4-(pyridin-3-yl)-5H-pyrrolo[3,2-d]pyrimidin-6-amine], which EC50 is on record?
Answer: 3170 nM

Question: COc1ccc(S(=O)(=O)c2c(N)[nH]c3c(C4=CCCCC4)ncnc23)cc1 [Example 4, 4-(cyclohex-1-en-1-yl)-7-[(4-methoxybenzene)sulfonyl]-5H-pyrrolo[3,2-d]pyrimidin-6-amine] was tested. Which EC50 did it give?
Answer: 25 nM

Question: How did the EC50 turn out when Cc1nc(C2=CCCCC2)c2[nH]c(N)c(S(=O)(=O)c3ccccc3)c2n1 [Example 19, 7-(benzenesulfonyl)-4-(cyclohex-1-en-1-yl)-2-methyl-5H-pyrrolo[3,2-d]pyrimidin-6-amine] was run?
Answer: 28 nM

Question: How did the EC50 turn out when Cc1nc(OC(C)C)c2[nH]c(N)c(S(=O)(=O)c3ccccc3F)c2n1 [Example 272, 7-(2-fluorobenzenesulfonyl)-2-methyl-4-(propan-2-yloxy)-5H-pyrrolo[3,2-d]pyrimidin-6-amine] was run?
Answer: 34 nM

Question: Which EC50 does the source give for COc1ccccc1CN(C)c1ncnc2c(S(=O)(=O)c3ccccc3)c(N)[nH]c12 [Example 92, 7-(benzenesulfonyl)-4-N-[(2-methoxyphenyl)methyl]-4-N-methyl-5H-pyrrolo[3,2-d]pyrimidine-4,6-diamine] here?
Answer: 209 nM

Question: With C[C@H]1CN(c2ncnc3c(S(=O)(=O)c4ccccc4)c(N)[nH]c23)CCO1 [Example 86, 7-(benzenesulfonyl)-4-[(2S)-2-methylmorpholin-4-yl]-5H-pyrrolo[3,2-d]pyrimidin-6-amine] as the compound, how does the EC50 read?
Answer: 19 nM

Question: With Cc1nc(OC(C)C(F)(F)F)c2[nH]c(N)c(S(=O)(=O)c3ccccc3F)c2n1 (centres unmarked) [Example 274, 7-(2-fluorobenzenesulfonyl)-2-methyl-4-[(1,1,1-trifluoropropan-2-yl)oxy]-5H-pyrrolo[3,2-d]pyrimidin-6-amine] as the compound, how does the EC50 read?
Answer: 8 nM

Question: With Cc1nc(N2CCO[C@H](C)[C@H]2C)c2[nH]c(N)c(S(=O)(=O)c3ccccc3F)c2n1 [Example 276, 4-[(RR,SS)-2,3-dimethylmorpholin-4-yl]-7-(2-fluorobenzenesulfonyl)-2-methyl-5H-pyrrolo[3,2-d]pyrimidin-6-amine] as the compound, how does the EC50 read?
Answer: 16 nM

Question: For Cc1nc(N2CCOC(C)(C)C2C)c2[nH]c(N)c(S(=O)(=O)c3ccccc3F)c2n1 (centres unmarked) [Example 8, 7-(2-fluorobenzenesulfonyl)-2-methyl-4-(2,2,3-trimethylmorpholin-4-yl)-5H-pyrrolo[3,2-d]pyrimidin-6-amine], which EC50 is on record?
Answer: 3 nM

Question: How did the EC50 turn out when Cc1nc(C2CCC(F)(F)CC2)c2[nH]c(N)c(S(=O)(=O)c3ccccc3)c2n1 [Example 183, 7-(benzenesulfonyl)-4-(4,4-difluorocyclohexyl)-2-methyl-5H-pyrrolo[3,2-d]pyrimidin-6-amine] was run?
Answer: 173 nM

Question: Nc1[nH]c2c(C3CCC(F)(F)CC3)ncnc2c1S(=O)(=O)c1ccccc1 [Example 155, 7-(benzenesulfonyl)-4-(4,4-difluorocyclohexyl)-5H-pyrrolo[3,2-d]pyrimidin-6-amine] was tested. Which EC50 did it give?
Answer: 330 nM

Question: Which EC50 does the source give for CCC1CN(c2ncnc3c(S(=O)(=O)c4ccccc4)c(N)[nH]c23)CCS1 (centres unmarked) [Example 196, 7-(benzenesulfonyl)-4-(2-ethylthiomorpholin-4-yl)-5H-pyrrolo[3,2-d]pyrimidin-6-amine] here?
Answer: 10 nM

Question: With COC1CCN(c2ncnc3c(S(=O)(=O)c4ccccc4)c(N)[nH]c23)C1 (centres unmarked) [Example 117, 7-(benzenesulfonyl)-4-(3-methoxypyrrolidin-1-yl)-5H-pyrrolo[3,2-d]pyrimidin-6-amine] as the compound, how does the EC50 read?
Answer: 3320 nM

Question: For COc1cccc(S(=O)(=O)c2c(N)[nH]c3c(N4CCOC(C)C4)ncnc23)c1 (centres unmarked) [Example 154, 7-(3-methoxybenzenesulfonyl)-4-(2-methylmorpholin-4-yl)-5H-pyrrolo[3,2-d]pyrimidin-6-amine], which EC50 is on record?
Answer: 47 nM

Question: For COc1ccc(S(=O)(=O)c2c(N)[nH]c3c(C4=CCCCC4)ncnc23)cn1 [Example 43, 4-(cyclohex-1-en-1-yl)-7-(6-methoxypyridine-3-sulfonyl)-5H-pyrrolo[3,2-d]pyrimidin-6-amine], which EC50 is on record?
Answer: 78 nM

Question: Cc1nc(OCC2CC2(C)C)c2[nH]c(N)c(S(=O)(=O)c3ccccc3)c2n1 (centres unmarked) [Example 245, 7-(benzenesulfonyl)-4-[(2,2-dimethylcyclopropyl)methoxy]-2-methyl-5H-pyrrolo[3,2-d]pyrimidin-6-amine] was tested. Which EC50 did it give?
Answer: 57 nM

Question: CC(C)c1ncnc2c(S(=O)(=O)c3ccccc3)c(N)[nH]c12 [Example 15, 7-(benzenesulfonyl)-4-(propan-2-yl)-5H-pyrrolo[3,2-d]pyrimidin-6-amine] was tested. Which EC50 did it give?
Answer: 1060 nM

Question: How did the EC50 turn out when COc1ccc(S(=O)(=O)c2c(N)[nH]c3c(N4CCOC(C)C4)ncnc23)cc1 (centres unmarked) [Example 107, 7-(4-methoxybenzenesulfonyl)-4-(2-methylmorpholin-4-yl)-5H-pyrrolo[3,2-d]pyrimidin-6-amine] was run?
Answer: 41 nM

Question: With Cc1nc(N2CCO[C@@H](C(F)(F)F)C2)c2[nH]c(N)c(S(=O)(=O)c3cc(F)ccc3F)c2n1 [Example 291] as the compound, how does the EC50 read?
Answer: 3 nM

Question: Nc1[nH]c2c(N3CCCC3)ncnc2c1S(=O)(=O)c1ccccc1 [Example 31, 7-(benzenesulfonyl)-4-(pyrrolidin-1-yl)-5H-pyrrolo[3,2-d]pyrimidin-6-amine] was tested. Which EC50 did it give?
Answer: 720 nM

Question: Which EC50 does the source give for Nc1[nH]c2c(N(CC3CC3)CC3CCCO3)ncnc2c1S(=O)(=O)c1ccccc1 (centres unmarked) [Example 63, 7-(benzenesulfonyl)-4-N-(cyclopropylmethyl)-4-N-(oxolan-2-ylmethyl)-5H-pyrrolo[3,2-d]pyrimidine-4,6-diamine] here?
Answer: 125 nM

Question: How did the EC50 turn out when Nc1[nH]c2c(C3=CCCCC3)ncnc2c1S(=O)(=O)c1cccc(F)c1 [Example 37, 4-(cyclohex-1-en-1-yl)-7-[(3-fluorobenzene)sulfonyl]-5H-pyrrolo[3,2-d]pyrimidin-6-amine] was run?
Answer: 80 nM

Question: Which EC50 does the source give for Cc1nc(N2CCO[C@@H](C)C2)c2[nH]c(N)c(S(=O)(=O)c3ccc(Br)cc3N3CCO[C@@H](C)C3)c2n1 [Example 240, 7-{4-bromo-2-[(2S)-2-methylmorpholin-4-yl]benzenesulfonyl}-2-methyl-4-[(2S)-2-methylmorpholin-4-yl]-5H-pyrrolo[3,2-d]pyrimidin-6-amine] here?
Answer: 125 nM

Question: Nc1[nH]c2c(C3=CCC(F)(F)CC3)ncnc2c1S(=O)(=O)c1ccccc1 [Example 127, 7-(benzenesulfonyl)-4-(4,4-difluorocyclohex-1-en-1-yl)-5H-pyrrolo[3,2-d]pyrimidin-6-amine] was tested. Which EC50 did it give?
Answer: 36 nM

Question: With Nc1[nH]c2c(NCC3CC3)ncnc2c1S(=O)(=O)c1ccccc1 [Example 70, 7-(benzenesulfonyl)-4-N-(cyclopropylmethyl)-5H-pyrrolo[3,2-d]pyrimidine-4,6-diamine] as the compound, how does the EC50 read?
Answer: 763 nM

Question: How did the EC50 turn out when C[C@@H]1CN(c2ncnc3c(S(=O)(=O)c4ccccc4)c(N)[nH]c23)CCO1 [Example 137, 7-(benzenesulfonyl)-4-[(2R)-2-methylmorpholin-4-yl]-5H-pyrrolo[3,2-d]pyrimidin-6-amine] was run?
Answer: 52 nM

Question: For CC1CN(c2ncnc3c(S(=O)(=O)C4CCN(C(=O)OCc5ccccc5)CC4)c(N)[nH]c23)CCO1 (centres unmarked) [Example 206, benzyl 4-{[6-amino-4-(2-methylmorpholin-4-yl)-5H-pyrrolo[3,2-d]pyrimidin-7-yl]sulfonyl}piperidine-1-carboxylate], which EC50 is on record?
Answer: 2640 nM

Question: For CC[C@@H](C)Oc1nc(C)nc2c(S(=O)(=O)c3ccccc3)c(N)[nH]c12 [Example 244, 7-(benzenesulfonyl)-4-[(2R)-butan-2-yloxy]-2-methyl-5H-pyrrolo[3,2-d]pyrimidin-6-amine], which EC50 is on record?
Answer: 31 nM

Question: For Cc1cc(C)n(-c2ncnc3c(S(=O)(=O)c4ccccc4)c(N)[nH]c23)n1 [Example 140, 7-(benzenesulfonyl)-4-(3,5-dimethyl-1H-pyrazol-1-yl)-5H-pyrrolo[3,2-d]pyrimidin-6-amine], which EC50 is on record?
Answer: 72 nM

Question: With Cc1nc(N2C[C@H](C)OC[C@@H]2C)c2[nH]c(N)c(S(=O)(=O)c3ccccc3)c2n1 [Example 220, 7-(benzenesulfonyl)-4-[(2S,5S)-2,5-dimethylmorpholin-4-yl]-2-methyl-5H-pyrrolo[3,2-d]pyrimidin-6-amine] as the compound, how does the EC50 read?
Answer: 21 nM

Question: How did the EC50 turn out when Nc1[nH]c2c(N3CCOC(C(F)(F)F)C3)ncnc2c1S(=O)(=O)c1ccccc1 (centres unmarked) [Example 141, 7-(benzenesulfonyl)-4-[2-(trifluoromethyl)morpholin-4-yl]-5H-pyrrolo[3,2-d]pyrimidin-6-amine] was run?
Answer: 12 nM

Question: Which EC50 does the source give for Cc1nc(N2CCO[C@@H](C)C2)c2[nH]c(N)c(S(=O)(=O)c3ccccc3F)c2n1 [Example 218, 7-(2-fluorobenzenesulfonyl)-2-methyl-4-[(2S)-2-methylmorpholin-4-yl]-5H-pyrrolo[3,2-d]pyrimidin-6-amine] here?
Answer: 2 nM

Question: With Cc1nc(OC(C)C2CCCCC2)c2[nH]c(N)c(S(=O)(=O)c3ccccc3)c2n1 (centres unmarked) [Example 255, 7-(benzenesulfonyl)-4-(1-cyclohexylethoxy)-2-methyl-5H-pyrrolo[3,2-d]pyrimidin-6-amine] as the compound, how does the EC50 read?
Answer: 65 nM

Question: For Cc1nc(N2CCOC3(CCCC3)C2)c2[nH]c(N)c(S(=O)(=O)c3cccc(F)c3)c2n1 [Example 199, 7-(3-fluorobenzenesulfonyl)-2-methyl-4-{6-oxa-9-azaspiro[4.5]decan-9-yl}-5H-pyrrolo[3,2-d]pyrimidin-6-amine], which EC50 is on record?
Answer: 25 nM

Question: For COCCOc1ncnc2c(S(=O)(=O)c3ccccc3)c(N)[nH]c12 [Example 174, 7-(benzenesulfonyl)-4-(2-methoxyethoxy)-5H-pyrrolo[3,2-d]pyrimidin-6-amine], which EC50 is on record?
Answer: 6620 nM

Question: With CC1CN(c2ncnc3c(S(=O)(=O)c4ccccc4)c(N)[nH]c23)CCS1 (centres unmarked) [Example 195, 7-(benzenesulfonyl)-4-(2-methylthiomorpholin-4-yl)-5H-pyrrolo[3,2-d]pyrimidin-6-amine] as the compound, how does the EC50 read?
Answer: 8 nM

Question: Cc1nc(Nc2ccc(Cl)cc2)c2[nH]c(N)c(S(=O)(=O)c3ccccc3F)c2n1 [Example 300, N4-(4-chlorophenyl)-7-(2-fluorobenzenesulfonyl)-2-methyl-5H-pyrrolo[3,2-d]pyrimidine-4,6-diamine] was tested. Which EC50 did it give?
Answer: 9 nM
